Where a name gives a salt, the structure may show the parent alone.

For this experiment, the system named is PDE IV. Kind of experiment: Inhibition of PDE IV isolated from canine tracheal muscle (cAMP metabolism). Conditions: canine trachealis PDE IV; for IC50: 1 μM 3H-cAMP, 10 μM CI-930, 30° C., pH 7.8, reduction expressed relative to 10 μM rolipram; for inhibition of PDE IV (percentage): at 10^-5 (concentration unit not given), percentage of the reduction induced by 10 μM rolipram. Format: biochemical. How it is done: The following assay is employed to assess the ability of the compound of the invention to inhibit PDE IV. A solution containing PDE IV is prepared from canine tracheal muscle as follows: The dog is euthanized with an overdose of euthanasia while under anesthesia induced by a 33 mg/kg IV bolus of Nembutal. The trachealis muscle is removed, cleaned of connective tissue, and minced thoroughly. Three to four grams of tissue is then homogenized in Trim-HCl buffer (pH 7.8) using a Polytron. The homogenate is then centrifuged at 25,000×g (4° C.) for 30 minutes. The supernatant is decanted and filtered through four layers of gauze, and applied to a 40 cm×2 cm DEAE-Sepharose column that is equilibrated with Trim-HCl buffer (pH 7.8). The column is then washed with an additional 240 mL of buffer to remove unbound proteins. […] Each fraction is assayed for cAMP- and cGMP- metabolizing PDE activity. Fractions eluting at approximately 0.6 M Na-acetate, and containing CAMP but not CGMP metabolic activity are pooled and used as a PDE stock solution for assaying PDE IV inhibitory activity. […] CI-930 is included as an inhibitor of the cyclic GMP-sensitive, cyclic AMP-selectivePDE (PDE III) that is also present in the PDE IV stock solution when prepared as described above.

As to `COc1ccc(C2CC(=O)N(C(=O)N[C@@H](C)c3cccc4ccccc34)N2C)cc1OC1CCCC1` (single isomer, unassigned) [13 A], inhibition was half-maximal at 0.012 µM (IC50). This counts as double-digit nanomolar.
Still for that read-out and setting: then `COc1ccc(C2CC(=O)N(C(=O)N[C@@H](C)c3cccc4ccccc34)N2C)cc1OC1CCCC1` (single isomer, unassigned) [13 B], with 0.018 µM; and `COc1ccc(C2CC(=O)NN2)cc1OC1CCCC1` (stereo not drawn) [Example 1, 5-[3-(Cyclopentyloxy)-4-methoxyphenyl]-3-pyrazolidinone], with 0.34 µM.
Same read-out and setting: for `COc1ccc(C2CC(=O)NN2C)cc1OC1CCCC1` (stereo not drawn) [Example 2, 5-[3--(Cyclopentyloxy)-4-methoxyphenyl]-1-methyl-3-pyrazolidinone] the value was 0.68 µM.
On the same count and under the same terms, then `COc1ccc(C2CC(=O)N(C)N2C)cc1OC1CCCC1` (stereo not drawn) [Example 3, 5-[3-(Cyclopentyloxy)-4-methoxyphenyl]-1,2-dimethyl-3-pyrazolidinone, hydriodide], with 0.82 µM; and `COC(=O)CN1NC(=O)CC1c1ccc(OC)c(OC2CCCC2)c1` (stereo not drawn) [Example 4, 5-[3-(Cyclopentyloxy)-4-methoxylphenyl]-3-oxo-1-pyrazolidineacetic acid methyl ester], with 0.44 µM.
Take `COc1ccc(C2CC(=O)NN2C(N)=O)cc1OC1CCCC1` (stereo not drawn) [Example 5, 5-[3-(Cyclopentyloxy)-4-methoxyphenyl]-3-oxo-1-pyrazolidinecarboxamide]: the “inhibition of PDE IV (percentage)” value is on record as 39%.
The same measure, in the same setting: for `COC(=O)N1NC(=O)CC1c1ccc(OC)c(OC2CCCC2)c1` (stereo not drawn) [Example 6, 5-[3-(Cyclopentyloxy)-4-methoxyphenyl]-3-oxo-1-pyrazolidinecarboxylic acid methyl ester] the value was 52%; for `COc1ccc(C2CC(=O)NN2CC(=O)O)cc1OC1CCCC1` (stereo not drawn) [Example 7], 39%.
In the case of `CNC(=O)N1C(=O)CC(c2ccc(OC)c(OC3CCCC3)c2)N1C` (stereo not drawn) [Example 9, 3-F3-(Cyclopentyloxy)-4-methoxyphenyl]-2-methyl-5-oxo-N-methyl-1-pyrazolidinecarboxamide, hemihidrate], the IC50 (in general, the point on the concentration scale where inhibition reaches its midpoint) was found to be 0.46 µM.
Same read-out and setting: then `COc1ccc(-c2cc(=O)[nH]n2C)cc1OC1CCCC1` [Example 10, 5-[3-(cyclopentyloxy)-4-methoxyphenyl]-1,2-dihydro-1-methyl-3H-pyrazol-3-one], with 0.31 µM.
In turn, `COc1ccc(-c2cc(=O)n(C(N)=O)n2C)cc1OC1CCCC1` [Example 11, 3-[3-(cyclopentyloxy)-4-methoxylphenyl]-2.5-dihydro-2-methyl-5-oxo-1H-pyrazole-1-carboxamide] came in with an IC50 of 0.38 µM.
Compound `COc1ccc(-c2cc(=O)n(C(=O)NCc3ccccn3)n2C)cc1OC1CCCC1` [Example 12, 3-[3-(cyclopentyloxy)-4-methoxyphenyl]-2.5-dihydro-2-methyl-5-oxo-N-(2-pyridinylmethyl)-1H-pyrazole-1-carboxamide] registered a 50% inhibitory concentration (IC50) of 0.42 µM.
Still for that read-out and setting: then `CCCCNC(=O)N1C(=O)CC(c2ccc(OC)c(OC3CCCC3)c2)N1C` (stereo not drawn) [Example 14, N-butyl-3-f3-(cyclopentyloxy)-4-methoxyphenyl]-2-methyl-5-oxo-1-pyrazolidinecarboxamide hydrochloride], with 0.26 µM; and `CCNC(=O)N1C(=O)CC(c2ccc(OC)c(OC3CCCC3)c2)N1C` (stereo not drawn) [Example 15, 3-[3-(cyclopentyloxy)-4-methoxylphenyl]-N-ethyl-2-methyl-5-oxo-1-pyrazolidinecarboxamide hydrochloride, hydrate], with 0.049 µM.
As for `COc1ccc(C2CC(=O)N(C(=O)Nc3ccccc3)N2C)cc1OC1CCCC1` (stereo not drawn) [Example 16, 3-[3-(cyclopentyloxy)-4-methoxyphenyl-2-methyl-5-oxo-N-phenyl-1-pyrazolidinecarboxamide hydrochloride], the “inhibition of PDE IV (percentage)” value came out at 48%.
`COc1ccc(C2CC(=O)N(C(=O)NCc3ccccc3)N2C)cc1OC1CCCC1` (stereo not drawn) [Example 17, 3-[3-(cyclopentyloxy)-4-methoxyphenyl]-2-methyl-5-oxo-N-(phenylmethyl)-1-pyrazolidinecarboxamide hydrochloride] showed a concentration for half-maximal inhibition (IC50) of 0.036 µM.
`COc1ccc(C2CC(=O)N(C(=O)NC3CCCCC3)N2C)cc1OC1CCCC1` (stereo not drawn) [Example 18, N-cyclohexyl-3-[3-(cyclopentyloxy)-4-methoxyphenyl]-2-methyl-5-oxo-1-pyrazolidine carboxamide hydrochloride] registered an IC50 of 0.1 µM.
Still for that read-out and setting: then `COc1ccc(NC(=O)N2C(=O)CC(c3ccc(OC)c(OC4CCCC4)c3)N2C)cc1` (stereo not drawn) [Example 19, 3-[3-(cyclopentyloxy)-4-methoxyphenyl]-N-(4-methoxyphenyl)-2-methyl-5-oxo-1-pyrazolidinecarboxamide], with 0.12 µM; and `COc1ccc(C2CC(=O)N(C(=S)NCc3ccc(F)cc3)N2C)cc1OC1CCCC1` (stereo not drawn) [Example 20, 3-[3-(cyclopentyloxy)-4-methoxyphenyl]-N-[(4-fluorophenyl)-methyl]-2-methyl-5-oxo-1-pyrazolidinecarbothioamide], with 0.065 µM.
Still for that read-out and setting: for `COc1ccc(CNC(=S)N2C(=O)CC(c3ccc(OC)c(OC4CCCC4)c3)N2C)cc1` (stereo not drawn) [Example 21, 3-[3-(cyclopentyloxy)-4-methoxyphenyl]-N-[(4-methoxyphenyl)methyl]-2-methyl-5-oxo-1-pyrazolidinecarbothioamide] the value was 0.053 µM.
The same measure, in the same setting: then `COc1ccc(C2CC(=O)N(C(=O)Nc3ccc(F)cc3)N2C)cc1OC1CCCC1` (stereo not drawn) [Example 22], with 0.21 µM; and `COc1ccc(C2CC(=O)N(C(N)=O)N2Cc2ccccc2)cc1OC1CCCC1` (stereo not drawn) [Example 23], with 0.32 µM; and `COc1ccc(C2CC(=O)N(C(=O)NCc3cccnc3)N2C)cc1OC1CCCC1` (stereo not drawn) [Example 24, 3-[3-(cyclopentyloxy)-4-methoxyphenyl]-2-methyl-5-oxo-N-(3-pyridinylmethyl)-1-pyrazolidine carboxamide], with 0.085 µM.
As to `COc1ccc(C2CC(=O)N(Cc3cccnc3)N2C)cc1OC1CCCC1` (stereo not drawn) [Example 25, 5-[3-(cyclopentyloxy)-4-methoxyphenyl]-1-methyl-2-(3-pyridinylmethyl)-3-pyrazolidinone hydrochloride dehydrate], the midpoint of inhibition, the IC50, lay at 1.5 µM.
`CCCCCCCN1C(=O)CC(c2ccc(OC)c(OC3CCCC3)c2)N1C` (stereo not drawn) [Example 26, 5-[3-(cyclopentyloxy)-4-methoxyphenyl-2-heptyl-1-methyl-3-pirazolidinone hydrochloride] had a half-maximal inhibitory concentration (IC50) of 0.17 µM. This IC50 lies about 8.8-fold lower than the previous one.
`COc1ccc(C2CC(=O)N(Cc3cncc(Br)c3)N2C)cc1OC1CCCC1` (stereo not drawn) [Example 27, 2-[(5-bromo-3-pyridinyl)methyl]-5-[3-(cyclopentyloxy)-4-methoxyphenyl]-1-methyl-3-pyrazolidinone hydrochloride] came in with an IC50 of 0.94 µM. Against the preceding compound, the IC50 is about 5.5-fold higher.
For the compound `COc1ccc(C2CC(=O)N(C(=O)c3cncc(Br)c3)N2C)cc1OC1CCCC1` (stereo not drawn) [Example 28, 5-[3-(cyclopentyloxy)-4-methoxyphenyl]-1-methyl-2-(5-bromo-3-pyridinylcarbonyl)-3-pyrazolidinone], the half-inhibitory concentration (IC50) is 0.35 µM.
On the same count and under the same terms, for `COc1ccc(C2CC(=O)N(CCCc3cccnc3)N2C)cc1OC1CCCC1` (stereo not drawn) [Example 29, 5-[3(cyclopentyloxy)-4-methoxyphenyl]-1-methyl-2-[3-(3-pyridinyl)propyl]-3-pyrazolidinone quarter dichloromethane] the value was 0.16 µM; for `COc1ccc(C2CC(=O)N(C/C=C/c3cncc(Br)c3)N2C)cc1OC1CCCC1` (stereo not drawn) [Example 30, 2-[(E)-3-(5-bromo-3-pyridinyl)-2-propenyl]-5-[3-(cyclopentyloxy)-4-methoxyphenyl]-1-methyl-3-pyrazolidinone hemi(dichloromethane)], 0.05 µM; for `COc1ccc(C2CC(=O)N(C(C)=O)N2C)cc1OC1CCCC1` (stereo not drawn) [Example 31, 2-acetyl-5-[3-(cyclopentyloxy)-4-methoxyphentyl]-1-methyl-3-pyrazolidinone hydrochloride], 0.98 µM.
On to `COc1ccc(C2CC(=O)N(C(=O)c3cccnc3)N2C)cc1OC1CCCC1` (stereo not drawn) [Example 32, 5-[3-(cyclolpentyloxy)-4-methoxyphenyl]-1-methyl-2-(3-pyridinylcarbonyl)-3-pirazolidinone hemihydrate], for which the IC50 turned out to be 0.34 µM. Against the preceding compound, the IC50 is about 2.9-fold lower.
On the same count and under the same terms, then `COc1ccc(C2CC(=O)N(C(=O)/C=C/c3cncc(Br)c3)N2C)cc1OC1CCCC1` (stereo not drawn) [Example 33], with 0.081 µM; and `COc1ccc(C2CC(=O)NN2Cc2ccccc2)cc1OC1CCCC1` (stereo not drawn) [Example 34, 5-[3-(cyclopentyloxy)-4-methoxyphenyl]-1-(phenylmethyl)-3-pyrazolidinone], with 0.058 µM.
The compound `CCN1NC(=O)CC1c1ccc(OC)c(OC2CCCC2)c1` (stereo not drawn) [Example 35, 5-[3-(cyclopentyloxy)-4-methoxyphenyl]-1-ethyl-3-pyrazolidinone] showed a 50% inhibitory concentration (IC50) of 4.1 µM.
In turn, `CCN(CC)CCNC(=O)N1C(=O)CC(c2ccc(OC)c(OC3CCCC3)c2)N1C` (stereo not drawn) [Example 36, 3-(3-Cyclopentyloxy-4-methoxyphenyl)-2-methyl-5-oxo-pyrazolidine-1-carboxylic acid 2-(diethyl-amino) ethylamide] came in with an IC50 of 5.6 µM.

Values taken from patent US5250700A, “Phenyl pyrazolidinones as bronchodilators and anti-inflammatory agents” (American Home Products Corporation, priority 1992, dated 1993).
